≈ marks a conversion by molar mass, not a printed value.
Columns and labels:
[1] = tested on: S. aureus ATCC 29213; test: SYTOX Green uptake assay; format: cell-based, Staphylococcus aureus; details: up to 8× MIC
Procedure: The SYTOX Green uptake was measured to explore the inner membrane permeability. The overnight bacteria culture was centrifuged and resuspended in sterile PBS to obtain an OD600 of 0.2. SYTOX Green dye was added to a final concentration of 0.3 μM and incubated for 20 min without being exposed to the light. Fluorescence was measured at excitation and emission wavelengths of 504 and 523 nm, respectively. […] The changes in fluorescence intensity were continuously monitored for 1 hour. All measurements were repeated three times with duplicates each time.

[2] = tested on: E. coli ATCC 25922; test: DiSC3(5) membrane depolarization assay; format: cell-based, Escherichia coli; details: 1× to 8× MIC
Procedure: The DiSC3(5) assay was carried out to investigate the cytoplasmic membrane depolarization. Mid-log phase bacteria culture was centrifuged and resuspended in sterile Hepes buffer [5 mM (pH 7.4)] to adjust the concentration of bacterial cells to obtain OD600 of 0.1. The bacterial suspension was then incubated with 2 μM DiSC3(5) for 1 hour without being exposed to the light. The change in fluorescence intensity was monitored by a BioTek multidetector microplate reader with an excitation wavelength of 622 nm and an emission wavelength of 670 nm. […] All measurements were repeated three times with duplicates each time.

[3] = tested on: Gram-negative bacteria; test: MIC, Gram-negative strains; format: cell-based; details: read-out: MICs against Gram-negative bacteria
Procedure: MIC was determined using the broth microdilution method in accordance with Clinical and Laboratory Standards Institute guidelines. All compounds were dissolved in dimethyl sulfoxide (DMSO; final DMSO concentration of less than 0.5%) and sterile double-distilled water and then diluted with Mueller-Hinton broth (MHB). Each compound’s stock solution was serially twofold diluted, resulting in concentrations ranging from 0.39 to 100 μg/ml, and thereafter added to sterile 96-well plates. All bacterial cell suspensions were adjusted in MHB to attain a starting inoculum of 1 × 10^6 cells/ml. A total of 100 μl volume of the bacterial suspension was then added to each well. Following a 24-hour incubation at 37°C, the optical density at 600 nm (OD600) was confirmed by measuring absorbance at 600 nm with a BioTek microplate reader. […] All measurements were repeated three times with duplicates each time.

[4] = tested on: S. aureus ATCC 29213; test: Time-kill kinetic assay; format: cell-based, Staphylococcus aureus; details: 10× MIC, 24 hours
Procedure: The bacterial cultures were standardized to obtain an initial density that ranged from 10^5 to 10^6 cells/ml. The cultures were incubated in a shaking bath at 37°C. Viable counts were determined at 0-, 0.5-, 1.0-, 2.0-, 4.0-, 8.0-, and 24-hour intervals by spotting 10-μl aliquots of serially 10-fold diluted cultures onto Mueller-Hinton agar (MHA) plates. […] All measurements were repeated three times with duplicates each time.

[5] = tested on: S. aureus ATCC 29213; test: Serial passage resistance induction; format: cell-based, Staphylococcus aureus; details: 20-day passages at 0.5× MIC
Procedure: The bacteria were grown in a medium containing 0.5× MIC of each compound to prepare the bacterial suspension for the next MIC determination. The MICs were then recorded after incubation at 37°C for 24 hours. Daily passages were continued until the initial MIC increased by more than fourfold. The stability of acquired resistance was investigated by MIC determination and repeated for 20 days.

## CC(C)=CCOc1cc(OCCCNC(=N)N)cc2oc3cc(OCCCNC(=N)N)ccc3c(=O)c12 [XT17]
[1]
  SYTOX Green fluorescence intensity (cytoplasmic membrane permeabilization): did not show a notable increase
[2]
  DiSC3(5) fluorescence intensity (membrane depolarization): no changes in fluorescence intensity
[3]
  MIC: 3.12 µg/mL (≈ 6.12 µM)
[4]
  log decrease in bacterial load: 5.16 log
[5]
  increase in MIC values during passages: no more than fourfold increase

From paper PMC11881906, “Development of xanthone derivatives as effective broad-spectrum antimicrobials: Disrupting cell wall and inhibiting DNA synthesis” (Science Advances, 2025)
